Source: patent publication US20230356105A1, “TETRAAZADODECANE BASED CHELATING AGENTS FOR SEPARATION OF RARE EARTH ELEMENTS AND METHOD THEREFOR” (Ustav Organicke Chemie a Biochemie AV CR V.V.I., priority 2020, published 2023)

Assay: Ultrafiltration to remove benzoic acid and effect precipitation of L5 complexes (Example 26)
Format: physicochemical
Protocol: Stock solutions were pipetted into a 20 mL glass vial to prepare the reaction mixture: • 1. 938 μL 196 mM aqueous chelator L5 (pH=4) • 2. 836 μL 1000 mM aqueous benzoic acid (stock solution containing 1 equivalent NaOH) • 3. 8000 μL H2O • 4. 952 μL 175.5 mM aqueous LnCl3 solution (from a stock solution containing a mixture of Ln=Nd, Pr, Tb, and Dy, in a ratio of 3.3:1:1:1, Nd:Pr:Tb:Dy)
The reaction solution was then titrated to pH 6.5 by addition of aqueous 2 M NaOH. The solution was stirred on a magnetic stir-plate at room temperature for 1 hour, and the precipitate was removed from the solution by filtration through a 0.45 μtm regenerated cellulose syringe filter. From this filtered solution, 1 mL was set aside for elemental analysis as the “initial” solution, 1 mL was set aside as a “control” solution in a clean 4 mL glass vial with a PTFE-coated stir bar to be stirred at 600 rpm at room temperature on a magnetic stirrer, and the remaining 9 mL were diluted slightly by addition of 2 mL H2O, then filtered on an ultrafiltration system with a nanofiltration membrane with molecular weight cut-off of 100-250 Da (NFS membrane, Synder Filtration, CA, USA), 4 bar N2 to pressurize the system, magnetic stiffing at 250 rpm, and continual addition of water to replace the filtered volume. The filtrate was collected in an Erlenmeyer flask, and a total volume of 50 mL was filtered over 11 hours. After this time, the “retained” reaction mixture, now having a volume of 10.5 mL and with some precipitate present, was transferred to a clean 20 mL glass vial and stirred by PTFE-coated stir bar on a magnetic stirrer at 600 rpm for an additional 10 hours, as was the control solution. After this additional time, samples of both the control solution and the retained solution from the ultrafiltration were prepared for elemental analysis by filtration through 0.45 μm nylon syringe filters. The initial, control, and retained solutions were then analysed by ICP-OES for determination of absolute Nd, Pr, Dy, and Tb content.

[1] = control solution, stirred without ultrafiltration
[2] = initial solution (L5 + benzoic acid, pH 6.5, filtered)
[3] = retained solution after ultrafiltration (100-250 Da membrane)
[4] = retained*, recalculated from end volume 10.5 to original 9.0 mL

Q: Which results are given for O=C(O)CN1CCN(CC(=O)O)CCN(Cc2cccc3ccccc23)CCN(CC(=O)O)CC1 [L5, 2,2′,2″-(10-(naphthalene-1-ylmethyl)-1,4,7,10-tetraazacyklododekane-1,4,7-triyl)triacetic acid]?
A: concentration Dy [1]: 760 µM; concentration Nd [1]: 1800 µM; concentration Pr [1]: 400 µM; concentration Tb [1]: 750 µM; concentration sum of M [1]: 3710 µM; concentration Dy [2]: 770 µM; concentration Nd [2]: 1800 µM; concentration Pr [2]: 400 µM; concentration Tb [2]: 760 µM; concentration sum of M [2]: 3730 µM; concentration Dy [3]: 440 µM; concentration Nd [3]: 1030 µM; concentration Pr [3]: 230 µM; concentration Tb [3]: 420 µM; concentration sum of M [3]: 2120 µM; concentration Dy [4]: 510 µM; concentration Nd [4]: 1200 µM; concentration Pr [4]: 270 µM; concentration Tb [4]: 490 µM; concentration sum of M [4]: 2470 µM
